Each block holds one compound with its values, some of them ahead of it.
How the values were obtained:
Human SCD-1 = biological target: T1, Human SCD-1 (Homo sapiens, UniProt O00767); assay: Human SCD-1 enzymatic activity from microsomes of HepG2 cells (conversion of stearic acid into oleic acid); type: biochemical; conditions: 10 μM compound; microsomal fraction of HepG2 cells; relative to carrier 0.1% DMSO; read-out: HSCD-1 (HEPG2) % inh. (10 μM)
T1 construct: adding 125 μg of microsomal fraction of HepG2 cells; host or cells: HepG2 human hepatocarcinoma cells (microsomal fraction)
T1 sequence (O00767 1-359): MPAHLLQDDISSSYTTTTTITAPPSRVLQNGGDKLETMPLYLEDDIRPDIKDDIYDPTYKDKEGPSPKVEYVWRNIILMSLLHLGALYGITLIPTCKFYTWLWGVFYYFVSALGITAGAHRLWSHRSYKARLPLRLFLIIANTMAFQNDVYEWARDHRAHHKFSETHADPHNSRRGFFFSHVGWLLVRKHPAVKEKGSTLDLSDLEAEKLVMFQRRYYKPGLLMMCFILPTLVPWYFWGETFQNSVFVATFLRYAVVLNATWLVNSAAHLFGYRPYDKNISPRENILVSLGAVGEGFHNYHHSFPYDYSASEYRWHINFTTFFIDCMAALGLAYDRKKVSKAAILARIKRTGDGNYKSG
Method: In vitro: Human SCD-1 enzymatic activity from microsomes of HepG2 cells after treatment with inhibitory compounds (inhibition %).
Human hepatocarcinoma HepG2 cells (ATCC, HB-8065) are grown to confluence and then trypsinized. The cell pellet is taken up in 10 mM Tris buffer (pH 7.4), saccharose (250 mM) DTT (1 mM) and then the cells are lyzed by sonication. The microsomes are obtained after centrifugation at 10,000 g for 20 minutes a 4° C. followed by centrifugation of the supernatant at 100,000 g for 60 minutes a 4° C. The pellet is taken up in 10 mM Tris buffer (pH 7.4) saccharose (250 mM) at 4° C. and the microsomal proteins are assayed and stored at −196° C. (liquid nitrogen).
The enzymatic reaction measures the conversion of stearic acid (a C18:0 fatty acid) into oleic acid (C18:1 fatty acid) by SCD-1. The enzymatic reaction is started by adding 125 μg of microsomal fraction of HepG2 cells to tubes (total reaction volume of 500 μl) containing 62 μM of stearic acid (45 μM of stearic acid and 17 μM of [^14C] stearic acid) in a phosphate buffer at 100 mM (pH 7.16) with 7.2 mM of ATP, 0.54 mM of CoA, 6 mM of MgCl2, 0.8 mM of NADH and the inhibitory compound or the carrier (0.1% DMSO). The tubes are incubated for 20 minutes at 37° C. and the enzymatic reaction is then stopped by adding KOH (12%) and saponification for 30 minutes at 80° C. After acidification (3N HCl), the fatty acids are extracted twice with ethyl ether, evaporated under nitrogen before being taken up with a methanol/dichloromethane (3:1) mixture. The product of the reaction (C18:1) is separated from the substrate of the reaction (C18:0) by HPLC (Perkin Elmer, C18 reverse phase column) coupled to a on-line radioactivity detector (FlowOne). Enzymatic activity is calculated in picomoles of stearic acid converted into oleic acid per minute and per mg of protein. For each inhibitory compound, an inhibition % is determined relatively to the reference enzymatic activity (carrier 0.1% DMSO). Sterculic acid is the reference inhibitory compound (Gomez F. E., Bauman D. E., Ntambi J. M., Fox B. G. Effects of sterculic acid on stearoyl-CoA desaturase in differentiating […] adipocytes. Biochem Biophys Res Commun. 300 316-326 (2003)).

SMILES: Cc1ccccc1-n1nc(N2CCC(Oc3ccccc3C(F)(F)F)CC2)c(=O)n(C)c1=O [Example 79, 4-methyl-2-o-tolyl-6-[4-(2-trifluoromethyl-phenoxy)-piperidin-1-yl]-2H-[1,2,4]triazine-3,5-dione]
melting point: 106 °C
inhibition at 10 µM (Human SCD-1): 54%

SMILES: O=C(c1ccccc1C(F)(F)F)N1CCN(c2c[nH]c(=O)[nH]c2=O)CC1 [Example 6, 5-[4-(2-trifluoromethyl-benzoyl)-piperazin-1-yl]-1H-pyrimidine-2,4-dione]
melting point: 285 °C
inhibition at 10 µM (Human SCD-1): 73%

SMILES: Cn1nc(N2CCC(Oc3cc(F)ccc3Cl)CC2)c(=O)n(C)c1=O [Example 30, 6-[4-(2-chloro-5-fluoro-phenoxy)-piperidin-1-yl]-2,4-dimethyl-2H-[1,2,4]triazine-3,5-dione]
melting point: 168 °C
inhibition at 10 µM (Human SCD-1): 86%

SMILES: Cn1nc(N2CCC(Oc3cc(C(F)(F)F)ccc3Cl)CC2)c(=O)n(C)c1=O [Example 29, 6-[4-(2-chloro-5-trifluoromethyl-phenoxy)-piperidin-1-yl]-2,4-dimethyl-2H-[1,2,4]triazine-3,5-dione]
melting point: 160 °C
inhibition at 10 µM (Human SCD-1): 71%

SMILES: Cc1ccccc1OC1CCN(c2nn(C)c(=O)n(C)c2=O)CC1 [Example 31, 2,4-dimethyl-6-(4-o-tolyloxy-piperidin-1-yl)-2H-[1,2,4]triazine-3,5-dione]
melting point: 102 °C
inhibition at 10 µM (Human SCD-1): 73%

SMILES: Cn1nc(N2CCC(Oc3ccc(F)cc3)CC2)c(=O)n(C)c1=O [Example 33, 6-[4-(4-fluoro-phenoxy)-piperidin-1-yl]-2,4-dimethyl-2H-[1,2,4]triazine-3,5-dione]
melting point: 70 °C
inhibition at 10 µM (Human SCD-1): 48%

SMILES: Cn1nc(N2CCN(C(=O)c3cc(F)ccc3C(F)(F)F)CC2)c(=O)n(C)c1=O [Example 42, 6-[4-(5-fluoro-2-trifluoromethyl-benzoyl)-piperazin-1-yl]-2,4-dimethyl-2H-[1,2,4]triazine-3,5-dione]
melting point: 87 °C
inhibition at 10 µM (Human SCD-1): 80%

SMILES: Cn1c(=O)c(N2CCC(Oc3ccccc3C(F)(F)F)CC2)nn(-c2ccc(C#N)cc2)c1=O [Example 83, 4-{4-methyl-3,5-dioxo-6-[4-(2-trifluoromethyl-phenoxy)-piperidin-1-yl]-4,5-dihydro-3H-[1,2,4]triazin-2-yl}-benzonitrile]
melting point: 72 °C
inhibition at 10 µM (Human SCD-1): 79%

SMILES: COc1ccccc1-n1nc(N2CCC(Oc3ccccc3C(F)(F)F)CC2)c(=O)n(C)c1=O [Example 84, 2-(2-methoxy-phenyl)-4-methyl-6-[4-(2-trifluoromethyl-phenoxy)-piperidin-1-yl]-2H-[1,2,4]triazine-3,5-dione]
melting point: 128 °C
inhibition at 10 µM (Human SCD-1): 53%

SMILES: CCOCCOCCn1nc(N2CCC(Oc3ccccc3C(F)(F)F)CC2)c(=O)n(C)c1=O [Example 88, 2-[2-(2-ethoxy-ethoxy)-ethyl]-4-methyl-6-[4-(2-trifluoromethyl-phenoxy)-piperidin-1-yl]-2H-[1,2,4]triazine-3,5-dione]
melting point: 44 °C
inhibition at 10 µM (Human SCD-1): 48%

SMILES: CCCCCCCn1c(=O)[nH]nc(N2CCC(Oc3ccccc3Cl)CC2)c1=O [Example 76, 6-[4-(2-chloro-phenoxy)-piperidin-1-yl]-4-heptyl-2H-[1,2,4]triazine-3,5-dione]
melting point: 95 °C
inhibition at 10 µM (Human SCD-1): 62%

SMILES: Cn1c(=O)c(N2CCC(Oc3ccccc3C(F)(F)F)CC2)nn(C2CCCCC2=O)c1=O (stereo not drawn) [Example 86, 4-methyl-2-(2-oxo-cyclohexyl)-6-[4-(2-trifluoromethyl-phenoxy)-piperidin-1-yl]-2H-[1,2,4]triazine-3,5-dione]
melting point: 65 °C
inhibition at 10 µM (Human SCD-1): 90%

SMILES: Cn1c(=O)c(N2CCC(Oc3ccccc3C(F)(F)F)CC2)nn(-c2ccc(F)cc2)c1=O [Example 80, 2-(4-fluoro-phenyl)-4-methyl-6-[4-(2-trifluoromethyl-phenoxy)-piperidin-1-yl]-2H-[1,2,4]triazine-3,5-dione]
melting point: 111 °C
inhibition at 10 µM (Human SCD-1): 87%

SMILES: Cn1c(=O)c(N2CCC(Oc3ccccc3C(F)(F)F)CC2)nn(-c2cccnc2)c1=O [Example 81, 4-methyl-2-pyridin-3-yl-6-[4-(2-trifluoromethyl-phenoxy)-piperidin-1-yl]-2H-[1,2,4]triazine-3,5-dione]
melting point: 63 °C
inhibition at 10 µM (Human SCD-1): 98%

Now from value to compound:

melting point: 92 °C
inhibition at 10 µM (Human SCD-1): 65%
SMILES: Cn1nc(N2CCN(Cc3ccccc3C(F)(F)F)CC2)c(=O)n(C)c1=O [Example 55, 2,4-dimethyl-6-[4-(2-trifluoromethyl-benzyl)-piperazin-1-yl]-2H-[1,2,4]triazine-3,5-dione]

melting point: 112 °C
inhibition at 10 µM (Human SCD-1): 100%
SMILES: Cn1c(=O)c(N2CCC(Oc3ccccc3C(F)(F)F)CC2)nn(CCO)c1=O [Example 89, 2-(2-hydroxy-ethyl)-4-methyl-6-[4-(2-trifluoromethyl-phenoxy)-piperidin-1-yl]-2H-[1,2,4]triazine-3,5-dione]

melting point: 150 °C
inhibition at 10 µM (Human SCD-1): 95%
SMILES: Cn1c(=O)[nH]nc(N2CCC(Oc3ccccc3C(F)(F)F)CC2)c1=O [Example 85, 4-methyl-6-[4-(2-trifluoromethyl-phenoxy)-piperidin-1-yl]-2H-[1,2,4]triazine-3,5-dione]

melting point: 205 °C
inhibition at 10 µM (Human SCD-1): 57%
SMILES: Cn1c(=O)[nH]nc(N2CCN(Cc3ccccc3C(F)(F)F)CC2)c1=O [Example 64, 4-methyl-6-[4-(2-trifluoromethyl-benzyl)-piperazin-1-yl]-2H-[1,2,4]triazine-3,5-dione]

melting point: 76 °C
inhibition at 10 µM (Human SCD-1): 43%
SMILES: Cn1nc(N2CCN(C(=O)c3ccccc3C(F)(F)F)CC2)c(=O)n(C)c1=O [Example 5, 2,4-dimethyl-6-[4-(2-trifluoromethyl-benzoyl)-piperazin-1-yl]-2H-[1,2,4]triazine-3,5-dione]

melting point: 235 °C
inhibition at 10 µM (Human SCD-1): 77%
SMILES: Cn1c(=O)[nH]nc(N2CCN(C(=O)c3ccccc3C(F)(F)F)CC2)c1=O [Example 4, 4-methyl-6-[4-(2-trifluoromethyl-benzoyl)-piperazin-1-yl]-2H-[1,2,4]triazine-3,5-dione]

melting point: 146 °C
inhibition at 10 µM (Human SCD-1): 63%
SMILES: Cn1nc(N2CCN(C(=O)c3ccccc3C(F)(F)F)CC2)c(=O)[nH]c1=O [Example 2, 2-methyl-6-[4-(2-trifluoromethyl-benzoyl)-piperazin-1-yl]-2H-[1,2,4]triazine-3,5-dione]

— US8618287B2, “Derivatives of triazines and uracils, their preparation and their application in human therapeutics” (Pierre Fabre Medicament, priority 2008, dated 2013)
